# Test results: US20180172712A1, “METHODS AND MATERIALS FOR ASSESSING HYDROGEN PEROXIDE ACCUMULATION IN CELLS” (Mayo Foundation for Medical Education and Research, priority 2015, published 2018)
# What was measured:
# IgL-λ mRNA = assay: Real-time PCR for IgL-λ mRNA; format: cell-based, human; details: FIG. 8B; 10, 30, or 50 μM, 72 hours
# Experimental: (§1) Total RNA from HMCLs treated with lenalidomide was isolated using the Qiagen RNeasy mini kit. RNA (1 μg) was used for cDNA synthesis using iScript Reverse Transcription Supermix (Bio-Rad). Real-time polymerase chain reaction (PCR) was performed using the SYBR green method. The following primers were used for amplification: […]
# (§2) The fold change of the mRNA expression was calculated from the difference between treated and untreated cells, after normalizing to an endogenous control (β-actin). Primers encompassing the spliced sequences in XBP1 mRNA were used for PCR amplification, and products were separated by electrophoresis through a 2.5% agarose gel and visualized by ethidium bromide staining. All reactions were conducted in triplicate.
# [1] = test system: ER stress markers in OPM2-NT and OPM2-shCRBN cells; assay: ER stress immunoblot in OPM2-NT and OPM2-shCRBN cells; format: cell-based, human
# From the text: (§3) Proteins were transferred to polyvinylidene fluoride membranes (Bio-Rad).
# [2] = test system: OPM2-NT and OPM2-shCRBN cells; assay: MTT assay in OPM2-NT and OPM2-shCRBN cells; format: cell-based, human; details: OPM2-NT vs OPM2-shCRBN, increasing concentrations, 3 days
# From the text: (§4) The data were normalized to the DMSO-treated group.
# XBP-1 mRNA = XBP-1 mRNA splicing by PCR; format: cell-based, human; details: lenalidomide 10 μM, 3 days
# Experimental: as §1, §2
# KMS11 cells = assay: MTT assay in KMS11 cells; format: cell-based, human; details: KMS11, 3 days
# From the text: as §4
# JJN3 cells = assay: MTT assay in JJN3 cells; format: cell-based, human; details: JJN3, 3 days
# From the text: as §4
# MM.1Sres cells = assay: MTT assay in MM.1Sres cells; format: cell-based, human
# From the text: as §4
# MM.1S cells [3] = assay: MTT assay in MM.1S cells; format: cell-based, human; details: 3 days
# From the text: as §4
# IgL-λ = IgL-λ secretion and intracellular level (immunoblot, ELISA) in OPM2-NT and OPM2-shCRBN cells; format: cell-based, human
# From the text: as §3
# [4] = test system: intracellular peroxidases in HMCLs; assay: Intra-cellular peroxidase activity by Amplex Red in HMCLs; format: cell-based, human; details: different myeloma cell lines; thalidomide 20 μM, lenalidomide 20 μM, pomalidomide 10 μM; 40 to 60 minutes
# Experimental: (§5) After 30 minutes, plates were read for fluorescence at 530 nm excitation and 590 nm emission with plate reader (Biotek Cytation3). For determining intra-cellular peroxidase activity by Amplex Red, cells were washed and mixed with Amplex Red reagent (50 μM) in HBSS buffer and plated 100,000 cells per well into 96 well plate, four wells for each condition. […] The DMSO control included H2O2 (100 μM). […] After specific time periods, the plates were read for fluorescence intensity using plate reader.
# IgL-λ dimers [5] = assay: IgL dimerization immunoblot under nonreducing conditions in MM.1S cells; format: cell-based, human; details: 3 hours, lenalidomide 10 μM or H2O2 25 μM
# From the text: as §3
# Horseradish peroxidase = target: T1, Horseradish peroxidase (Armoracia rusticana, UniProt P00433); assay: HRP/Amplex Red in-vitro assay; format: biochemical; details: 10 μM drug, 5 μM H2O2, 30 minutes
# T1 sequence (P00433 31-338 limits assumed): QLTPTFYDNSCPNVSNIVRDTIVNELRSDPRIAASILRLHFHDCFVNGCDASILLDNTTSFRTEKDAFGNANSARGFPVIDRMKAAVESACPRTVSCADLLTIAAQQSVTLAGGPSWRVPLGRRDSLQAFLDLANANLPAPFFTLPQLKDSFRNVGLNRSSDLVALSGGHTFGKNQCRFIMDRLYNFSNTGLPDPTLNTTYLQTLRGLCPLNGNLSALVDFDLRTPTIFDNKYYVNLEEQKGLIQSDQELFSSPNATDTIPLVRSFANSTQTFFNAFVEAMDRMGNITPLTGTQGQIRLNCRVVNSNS
# Experimental: as §5
# RPMI-8226 cells = assay: MTT assay in RPMI-8226 cells; format: cell-based, human; details: RPMI-8226, 3 days
# From the text: as §4
# Bip = Bip immunoblot in other isogenic HMCLs (MM.1S/MM.1Sres, KMS18-NT/KMS18-shCRBN); format: cell-based, human; details: CRBN-positive vs CRBN-negative cells, 3 days
# From the text: as §3
# MM.1S cells [6] = assay: Intracellular ROS by DCFDA flow cytometry; format: cell-based, human; details: MM.1S cells pretreated with DCFDA 30 minutes; lenalidomide 10 μM vs vehicle
# Experimental: Post-treatment reactive oxygen species (ROS) levels were determined using the cell-permeable fluorogenic probe DCFDA (Invitrogen Biosciences). Briefly, million cells per 2 mL (2 million cells in 4 mL medium) were cultured overnight. DCFDA (50 μM) was added to suspended cells and incubated for 30 minutes in the dark. Cells were collected and washed once with phosphate-buffered saline (PBS) and split into 2 FACS tubes. […] Cells were analyzed using a FACSCalibur system (Becton and Dickinson), with excitation and emission spectra set at 488 and 530 nm, respectively. CellQuest software was used to calculate H2O2 production by measuring the increase in mean fluorescence.
# IgL-λ dimers [7] = assay: IgL dimerization immunoblot in MM.1S and MM.1Sres cells; format: cell-based, human; details: MM.1S and MM.1Sres treated for 3 days
# From the text: as §3
smiles,measurement,setting,value
Nc1cccc2c1CN(C1CCC(=O)NC1=O)C2=O (stereo not drawn) [lenalidomide],IgL-λ mRNA expression,IgL-λ mRNA,unchanged
same,ER stress response,"[1]; 3 days, increasing concentrations (10, 30, or 50 μM)","an ER stress response occurred in OPM2-NT cells, but not in CRBN-knockdown cells"
same,GRP78/BiP protein,"[1]; CRBN-positive cells, 3 days",accumulated
same,IRE1α protein level,"[1]; CRBN-positive cells, 3 days",markedly decreased
same,p53 protein levels,"[1]; CRBN-positive cells, 3 days",decreased
same,p53 and PARP levels,"[1]; CRBN-positive lenalidomide-sensitive cells, 6 days",complete degradation of p53 and PARP proteins
same,CRBN dependence of cytotoxicity (MTT),[2],CRBN dependent
same,mRNA splicing of XBP-1,XBP-1 mRNA,more evident in OPM2-NT cells than CRBN-knockdown cells
same,sensitivity of cell line (MTT),KMS11 cells,sensitive
same,sensitivity of cell line (MTT),JJN3 cells,resistant
same,sensitivity of cell line (MTT),MM.1Sres cells,resistant
same,sensitivity of cell line (MTT),MM.1S cells [3],hypersensitive
same,total intracellular IgL protein,"IgL-λ; FIG. 8C, 72 hours",increased total intracellular IgL protein
same,secretion of IgG-λ / IgL-λ,IgL-λ; FIG. 8D-E,decreased secretion
same,intracellular H2O2 decomposition mediated by peroxidases,[4],inhibit intracellular H2O2 decomposition
same,formation of IgL-λ dimers,IgL-λ dimers [5],increased formation of IgL-λ dimers
same,decomposition of H2O2 by horseradish peroxidase (Amplex Red to resorufin),Horseradish peroxidase,inhibited
same,sensitivity of cell line (MTT),RPMI-8226 cells,resistant
same,Bip protein,Bip,"accumulation of Bip protein in CRBN-positive cells, but not in CRBN-negative cells"
same,intracellular H2O2 (DCF fluorescence by FACS),MM.1S cells [6],increasing intracellular H2O2
same,IgL-λ dimers,IgL-λ dimers [7],IgL-λ dimers were observed only in MM.1S
